Data: ChEMBL document CHEMBL3860109, “Benzenesulfonamides Incorporating Flexible Triazole Moieties Are Highly Effective Carbonic Anhydrase Inhibitors: Synthesis and Kinetic, Crystallographic, Computational, and Intraocular Pressure Lowering Investigations” (J Med Chem, 2016)
The source made the active and inactive calls. No cut-off for these calls is given here.

How the values were obtained:
Carbonic anhydrase 9 = Carbonic anhydrase 9 (Homo sapiens, UniProt Q16790)
Description: Inhibition of human carbonic anhydrase 9 pre-incubated for 15 mins by stopped flow carbon dioxide hydrase assay

Oryctolagus cuniculus [1] = species: Oryctolagus cuniculus; assay: Reduction in intraocular pressure in New Zealand albino rabbit model of hypertonic saline-induced ocular hypertension at 1 to 2% instilled immediately after hypertonic saline injection measured after 2 hrs post dose; format: functional, Eye
Carbonic anhydrase 1 = Carbonic anhydrase 1 (Homo sapiens, UniProt P00915); assay: Inhibition of human carbonic anhydrase 1 pre-incubated for 15 mins by stopped flow carbon dioxide hydrase assay
Oryctolagus cuniculus [2] = species: Oryctolagus cuniculus; assay: Reduction in intraocular pressure in New Zealand albino rabbit model of hypertonic saline-induced ocular hypertension at 1 to 2% instilled immediately after hypertonic saline injection measured after 4 hrs post dose; format: functional; conditions: Eye
Carbonic anhydrase 2 = Carbonic anhydrase 2 (Homo sapiens, UniProt P00918); assay: Inhibition of human carbonic anhydrase 2 pre-incubated for 15 mins by stopped flow carbon dioxide hydrase assay

Chain of Carbonic anhydrase 1 (P00915 whole entry): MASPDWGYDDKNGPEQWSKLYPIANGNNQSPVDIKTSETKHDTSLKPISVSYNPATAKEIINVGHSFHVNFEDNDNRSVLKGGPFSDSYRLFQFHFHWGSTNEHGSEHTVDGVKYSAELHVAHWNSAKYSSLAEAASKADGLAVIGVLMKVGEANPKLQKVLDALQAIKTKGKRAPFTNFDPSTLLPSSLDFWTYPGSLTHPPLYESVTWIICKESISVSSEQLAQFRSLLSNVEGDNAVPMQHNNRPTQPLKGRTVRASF

| Structure (SMILES) | Ki (Carbonic anhydrase 9) [nM] | other results |
| --- | --- | --- |
| NS(=O)(=O)c1ccc(-n2cc(COc3cccnc3)nn2)cc1 | 17.2 | – |
| NS(=O)(=O)c1ccc(-n2cc(CNc3ccccc3)nn2)cc1 | 2.2 | Activity (Oryctolagus cuniculus [1]): 2 mmHg |
| NS(=O)(=O)c1ccc(OCc2cn(-c3ccc(O)cc3)nn2)cc1 | 18.7 | – |
| NS(=O)(=O)c1ccc(OCc2cn(-c3ccc(C(F)(F)F)cc3)nn2)cc1 | 23.6 | Ki (Carbonic anhydrase 1): > 10000 nM |
| NS(=O)(=O)c1ccc(-n2cc(COc3ccccc3)nn2)cc1 | 2.1 | Activity (Oryctolagus cuniculus [1]): 3 mmHg; Activity (Oryctolagus cuniculus [2]): Active |
| NS(=O)(=O)c1ccc(-n2cc(-c3ccccc3)nn2)cc1 | – | Ki (Carbonic anhydrase 1): 342 nM |
| NS(=O)(=O)c1ccc(OCc2cn(-c3ccccc3)nn2)cc1 | 2.6 | – |
| COc1cccc(-n2cc(COc3ccc(S(N)(=O)=O)cc3)nn2)c1 | 20.5 | – |
| NS(=O)(=O)c1ccc(OCc2cn(-c3ccc(F)cc3)nn2)cc1 | 16.2 | – |
| Cc1cccc(OCc2cn(-c3ccc(S(N)(=O)=O)cc3)nn2)c1 | 2.3 | – |
| NS(=O)(=O)c1ccc(-n2cc(CSc3ccccc3)nn2)cc1 | 2.4 | – |
| NS(=O)(=O)c1ccc(-n2cc(CN(Cc3cn(-c4ccc(S(N)(=O)=O)cc4)nn3)c3ccccc3)nn2)cc1 | 12.1 | Ki (Carbonic anhydrase 2): > 10000 nM; Ki (Carbonic anhydrase 1): > 10000 nM |
| COc1cccc(OCc2cn(-c3ccc(S(N)(=O)=O)cc3)nn2)c1 | 9.3 | – |
| COc1ccc(OCc2cn(-c3ccc(S(N)(=O)=O)cc3)nn2)cc1 | 14.3 | – |
